Results published in article PMC8253140 (Drug Delivery, 2017).
Where two headings read alike, the source gives them in different places. Residues, ends and D or L forms follow the SMILES beside them. No end group written: not given here. *: point of attachment. Paclitaxel(2'-O-succinyl) = CC(=O)O[C@H]1C(=O)[C@@]2(C)[C@H]([C@H](OC(=O)c3ccccc3)[C@]3(O)C[C@H](OC(=O)[C@H](OC(=O)CCC(=O)*)[C@@H](NC(=O)c4ccccc4)c4ccccc4)C(C)=C1C3(C)C)[C@]1(OC(C)=O)CO[C@@H]1C[C@@H]2O

Columns and labels:
[1] = tested on: A549T cells; test: Cytotoxicity study, MTT colorimetric assay; assay type: cell-based; settings: for IC50 value as % of the IC50 of PTX: GraphPad Prism, p < 0.01 vs PTX
Protocol: The inhibitory activities of the drug samples on cell growth were evaluated using a 3-(4,5-dimethylthiazol-2-yl)-2,5-diphenyltetrazolium bromide (MTT) colorimetric assay. A549 and A549T cells were harvested by trypsinization and resuspended at a concentration of 2 × 10^4 cells/mL in fresh culture medium. Then, the cells were seeded at a density of 5000 cells per well in 96-well plates. […] The concentration of the drugs ranged from 0.1 μM to 100 μM. After 24 h of incubation, the drug-containing media were abandoned, and 20 μL of MTT (5 mg/mL) solution was added to each well. The plate was incubated for an additional 4 h, and then, 200 mL of DMSO was added to each well to dissolve any formed purple formazan crystals. The plates were vigorously shaken before measuring the relative color intensity. The absorbance at 570 nm of each well was measured with a plate reader.

[2] = tested on: A549T tumor; assay type: in vivo, BALB/c nude mice; settings: 1000 μM
Description: (§1) The protocol to evaluate the in vivo antitumor efficacy of the PTX-CPP conjugates was approved by the ethics committee of Fudan University. Four-week-old female BALB/c nude mice were purchased and housed in the Animal Care Facilities in the School of Pharmacy, Fudan University. BALB/c mice bearing subcutaneous tumors were used as an animal model for the evaluation of the anticancer activities of PTX-LMWP and PTX-TAT. The subcutaneous tumor xenograft model was established by inoculating 2 × 10^6 A549 or A549T cells (in 100 μL of cell culture medium) into the subcutaneous tissue of the armpit of the right anterior limb (Gu et al., [2014]). Tumor size was measured with Vernier calipers for the largest (length) and smallest (width) superficial visible diameters of the protruding tumor mass through the skin. Tumor volumes were calculated according to the following formula: volume = 0.52 × W^2×L, where W and L represent the width and the length, respectively (Lee et al., [2011]). The drugs were administered 2 weeks after tumor implantation, when the size of the tumors reached approximately 100–150 mm^3. […] Each experimental group contained six mice. The mice were treated (100 μL volume) three times over 8 d via peritumoral injection. Tumor volumes were measured at 2-d intervals. At the end of the experiment, the mice were sacrificed, and necropsies were performed. The tumors were removed, weighed and fixed with formalin.

[3] = tested on: A549 tumor; assay type: in vivo, BALB/c nude mice; settings: A549 tumor-bearing nude mice, 1000 μM, 100 μL, peritumoral injection three times over 8 d; for tumor inhibition rate: tumors dissected and weighed after 24 or 30 d; for tumor inhibition rate / decrease of tumor volume compared with PTX: six mice per group; for decrease of tumor volume compared with PTX: from 22 to 30 d
Description: as §1

[4] = tested on: A549 cells; test: Cell apoptosis detection, annexin V-FITC/PI flow cytometry; assay type: cell-based; settings: 10 μM, 48 h, triplicate
Protocol: (§2) Cell apoptosis was determined by an annexin V-FITC/PI assay. The externalization of phosphatidylserine, a result of early stage apoptosis, was detected by FITC-annexin V protein staining, and the membrane damage due to late-stage apoptosis was detected by the binding of PI to nuclear DNA. Briefly, 2 × 10^5 A549 and A549T cells were plated in 6-well plates and incubated for 24 h. After exposure to the different drugs at a concentration of 10 μM for 48 h, the cells were harvested by trypsinization, washed in PBS twice and incubated in the dark for 10 min at room temperature in 500 μL of binding buffer containing annexin V-FITC (1 μg/mL) and PI (1 μg/mL). The cells were immediately analyzed by flow cytometry (Becton Dickinson, Franklin Lakes, NJ). The fluorescence intensity of annexin V-FITC was measured at an excitation/emission wavelength of 488/530 nm and that of PI was measured at an excitation/emission wavelength of 488/617 nm. Approximately 10 000 cells were analyzed in each of the samples. Each assay was repeated in triplicate.

[5] = tested on: A549T cells; assay type: cell-based; settings: 5 μM, 48 h, triplicate
Protocol: (§3) After that, the cells were harvested by trypsinization, washed in PBS twice, and fixed in 70% cold ethanol for 24 h at 4 °C. The fixed cells were washed in cold PBS and then resuspended in 0.5 mL of PBS containing 50 μg/mL PI, 0.1% Triton-X-100, 0.1% sodium citrate, and 100 μg/mL RNase. After incubation at 4 °C in the dark for 30 min, the fluorescence-activated cells were sorted. The cellular DNA content was analyzed by flow cytometry (Becton Dickinson, Franklin Lakes, NJ). Each analysis contained at least 10 000 cells. […] The percentages of cells in different cell cycle phases were then recorded. Each experiment was performed in triplicate, and the results were expressed as the mean ± SD.

[6] = tested on: A549 cells; test: Cell-cycle analysis, PI flow cytometry; assay type: cell-based; settings: 5 μM, 48 h, triplicate
Protocol: as §3

[7] = tested on: A549 cells; test: Cytotoxicity study, MTT colorimetric assay; settings: for cell viability / IC50 value as % of the IC50 of PTX: 24 h; for IC50 value as % of the IC50 of PTX: GraphPad Prism, p < 0.01 vs PTX
Protocol: The inhibitory activities of the drug samples on cell growth were evaluated using a 3-(4,5-dimethylthiazol-2-yl)-2,5-diphenyltetrazolium bromide (MTT) colorimetric assay. A549 and A549T cells were harvested by trypsinization and resuspended at a concentration of 2 × 10^4 cells/mL in fresh culture medium. Then, the cells were seeded at a density of 5000 cells per well in 96-well plates. […] The concentration of the drugs ranged from 0.1 μM to 100 μM. After 24 h of incubation, the drug-containing media were abandoned, and 20 μL of MTT (5 mg/mL) solution was added to each well. The plate was incubated for an additional 4 h, and then, […] of DMSO was added to each well to dissolve any formed purple formazan crystals. The plates were vigorously shaken before measuring the relative color intensity. The absorbance at 570 nm of each well was measured with a plate reader.

[8] = tested on: A549T cells; test: Mitochondrial membrane potential (Δψm) determination, JC-1 flow cytometry; assay type: cell-based; settings: 10 μM, 48 h, triplicate
Protocol: Changes in the mitochondrial membrane potential (Δψm) were detected using JC-1 and analyzed with flow cytometry. Briefly, A549 and A549T cells were seeded at a density of 1 × 10^5 cells/mL in 6-well plates and exposed to the drugs (10 μM) for 48 h. The control experiments were performed by adding only culture medium. Then, the cells were harvested by trypsinization, washed in PBS twice, incubated with JC-1 ([…]) at 37 °C for 10 min in the dark, and finally analyzed by flow cytometry (Becton Dickinson, Franklin Lakes, NJ). Each assay was repeated in triplicate. JC-1 accumulates in mitochondria that have a high membrane potential and then dimerizes due to the high local concentrations achieved. Dimerized JC-1 emits red fluorescence, while monomeric JC-1 emits green fluorescence. The results are expressed as a ratio of red to green fluorescence.

[9] = tested on: A549T cells; test: Cell apoptosis detection, annexin V-FITC/PI flow cytometry; assay type: cell-based; settings: 10 μM, 48 h, triplicate
Protocol: as §2

[10] = tested on: A549 cells; test: Cellular uptake assay (intracellular drug accumulation); assay type: cell-based; settings: 20 μM, incubation 15 min to 4 h, UPLC
Protocol: The cellular uptake experiment was implemented basing on the protocol designed by Meng with some modifications (Meng et al., [2011]). Briefly, A549 and A549T cells were cultivated in chambered 24-well plates with 5% CO2 at 37 °C for 48 h. Then, the adherent cells were washed twice with PBS. Each of the three drugs was diluted in cell medium at concentrations of 10 μM and 20 μM and added to the chambers. The cells were incubated for 2 h and washed four times with PBS after incubation. After that, the cells were scraped from the wells and quantitatively transferred to Eppendorf centrifuge tubes. The resulting cell/saline suspensions were sonicated for 20 cycles of 2 s each with 2 s of rest between each cycle using a probe sonicator. The lysed cell solution was centrifuged at 7000 g for 30 min at 4 °C. Then, 100 μL of the supernatant was withdrawn carefully and tested with UPLC (BEH C18, 1.7 μm, 2.1 × 50 mm). The flow rate was 0.3 mL/min, and the mobile phase consisted of 55% solvent A (PBS, pH = 5) and 45% solvent B (acetonitrile). To further test the change in cellular uptake against incubation time, the drugs (20 μM) were added to the cells, and the cells were then incubated for different times, ranging from 15 min to 4 h. The other steps of the experiment were performed as described above.

[11] = A549T tumor-bearing nude mice, 100 μL, peritumoral injection three times over 8 d

Molecule | tumor growth (tumor volume) compared with the control [2, 11] | tumor inhibition rate [3] [%] | percentage of late apoptotic cells (PI+/annexin V+) [4] [%] | effect on cell-cycle distribution [5] | IC50 value as % of the IC50 of PTX ([1]; A549T cells, MTT, 24 h) [%] | tumor inhibition rate ([2]; mouse, in vivo) [%] | decrease of tumor volume compared with PTX [3] | percentage of early apoptotic cells (PI−/annexin V+) [9] [%] | percentage of late apoptotic cells (PI+/annexin V+) [9] [%] | IC50 value as % of the IC50 of PTX ([7]; A549 cells, MTT) [%] | other results
CC(=O)O[C@H]1C(=O)[C@@]2(C)[C@H]([C@H](OC(=O)c3ccccc3)[C@]3(O)C[C@H](OC(=O)[C@H](O)[C@@H](NC(=O)c4ccccc4)c4ccccc4)C(C)=C1C3(C)C)[C@]1(OC(C)=O)CO[C@@H]1C[C@@H]2O [PTX, Paclitaxel, reference compound] | no significant difference in the tumor volumes between the control and PTX groups | 31.06 | 13.03 | a large number of A549T cells were induced into tetraploids | – | – | – | – | – | – | effect on cell viability ([1]; A549T cells, MTT, 24 h, concentrations below 1000 nM): no effect on cell viability; tumor inhibition rate ([2]; A549T tumor-bearing nude mice, 100 μL, peritumoral injection three times over 8 d, tumors dissected and weighed after 24 or 30 d, six mice per group): 11.0%; tumor growth (tumor volume) compared with the control [3]: significant antitumor effect; effect on cell-cycle distribution [6]: substantially increased the percentages of cells in G2/M phase cell-cycle arrest; cell viability ([7]; A549 cells, MTT, concentration below 1 nM): higher than 80%; cell viability ([7]; A549 cells, MTT, concentrations from 100 nM to 100 000 nM): 40%
CC(=O)O[C@H]1C(=O)[C@@]2(C)[C@H]([C@H](OC(=O)c3ccccc3)[C@]3(O)C[C@H](OC(=O)[C@H](OC(=O)CCC(=O)N[C@H](C(=O)N[C@@H](CO)C(=O)N[C@@H](CCCNC(=N)N)C(=O)N[C@@H](CCCNC(=N)N)C(=O)N[C@@H](CCCNC(=N)N)C(=O)N[C@@H](CCCNC(=N)N)C(=O)N[C@@H](CCCNC(=N)N)C(=O)N[C@@H](CCCNC(=N)N)C(=O)NCC(=O)NCC(=O)N[C@@H](CCCNC(=N)N)C(=O)N[C@@H](CCCNC(=N)N)C(=O)N[C@@H](CCCNC(=N)N)C(=O)N[C@@H](CCCNC(=N)N)C(=O)O)C(C)C)[C@@H](NC(=O)c4ccccc4)c4ccccc4)C(C)=C1C3(C)C)[C@]1(OC(C)=O)CO[C@@H]1C[C@@H]2O [PTX-LMWP] ({Paclitaxel(2'-O-succinyl)}-VSRRRRRRGGRRRR-OH; N-terminus and C-terminus assumed) | considerable antitumor effect | 62.92 | 84.03 | limited generation of tetraploids but a large number of cells in diploid-S phase cell-cycle arrest | 21.5 | 43.13 | 1.45–1.80 fold | 38.10 | 55.75 | 33.5 | effect on mitochondrial membrane potential (Δψm), ratio of red to green JC-1 fluorescence [8]: significant breakdown of the Δψm compared with the PTX-TAT treatment; IC50 value compared with PTX-TAT ([1]; A549T cells, MTT, p < 0.01): remarkably lower than that of PTX-TAT; cellular uptake against incubation time [10]: stronger than that of PTX-TAT
CC(=O)O[C@H]1C(=O)[C@@]2(C)[C@H]([C@H](OC(=O)c3ccccc3)[C@]3(O)C[C@H](OC(=O)[C@H](OC(=O)CCC(=O)NCCN4C(=O)CC(SC[C@H](N)C(=O)NCC(=O)NCC(=O)NCC(=O)N[C@@H](Cc5ccc(O)cc5)C(=O)NCC(=O)N[C@@H](CCCNC(=N)N)C(=O)N[C@@H](CCCCN)C(=O)N[C@@H](CCCCN)C(=O)N[C@@H](CCCNC(=N)N)C(=O)N[C@@H](CCCNC(=N)N)C(=O)N[C@@H](CCC(N)=O)C(=O)N[C@@H](CCCNC(=N)N)C(=O)N[C@@H](CCCNC(=N)N)C(=O)N[C@@H](CCCNC(=N)N)C(=O)O)C4=O)[C@@H](NC(=O)c4ccccc4)c4ccccc4)C(C)=C1C3(C)C)[C@]1(OC(C)=O)CO[C@@H]1C[C@@H]2O (stereo partly shown) [PTX-TAT] | considerable antitumor effect | 63.32 | 72.57 | higher tetraploid-G2/M phase arrest than those incubated with PTX | 39.5 | 42.47 | 1.51–1.77 fold | 23.15 | 54.20 | 47.2 | –
N=C(N)NCCC[C@H](NC(=O)[C@H](CCCNC(=N)N)NC(=O)[C@H](CCCNC(=N)N)NC(=O)[C@H](CCC(N)=O)NC(=O)[C@H](CCCNC(=N)N)NC(=O)[C@H](CCCNC(=N)N)NC(=O)[C@H](CCCCN)NC(=O)[C@H](CCCCN)NC(=O)[C@H](CCCNC(=N)N)NC(=O)CNC(=O)[C@H](Cc1ccc(O)cc1)NC(=O)CNC(=O)CNC(=O)CNC(=O)[C@@H](N)CS)C(=O)O [TAT, reference compound] | – | – | – | – | – | – | – | – | – | – | toxicity of the CPPs alone (cell viability) ([1]; A549T cells, MTT, same molar concentrations as PTX): No harmful effect; toxicity of the CPPs alone (cell viability) ([7]; A549 cells, MTT, same molar concentrations as PTX): No harmful effect
VSRRRRRRGGRRRR [LMWP, reference compound] | – | – | – | – | – | – | – | – | – | – | toxicity of the CPPs alone (cell viability) [1]: No harmful effect; toxicity of the CPPs alone (cell viability) [7]: No harmful effect
